The results in this text go back to ChEMBL document CHEMBL5291721, “A preclinical secondary pharmacology resource illuminates target-adverse drug reaction associations of marketed drugs” (Nat Commun, 2023).

SMILES strings stand for the structures. A value given as a limit tells only on which side of the number the result lay.
Also: assay procedure not described here.

The target in the test is Bile salt export pump (Homo sapiens, UniProt O95342). Type of test: functional.
Chain of Bile salt export pump (O95342 whole entry): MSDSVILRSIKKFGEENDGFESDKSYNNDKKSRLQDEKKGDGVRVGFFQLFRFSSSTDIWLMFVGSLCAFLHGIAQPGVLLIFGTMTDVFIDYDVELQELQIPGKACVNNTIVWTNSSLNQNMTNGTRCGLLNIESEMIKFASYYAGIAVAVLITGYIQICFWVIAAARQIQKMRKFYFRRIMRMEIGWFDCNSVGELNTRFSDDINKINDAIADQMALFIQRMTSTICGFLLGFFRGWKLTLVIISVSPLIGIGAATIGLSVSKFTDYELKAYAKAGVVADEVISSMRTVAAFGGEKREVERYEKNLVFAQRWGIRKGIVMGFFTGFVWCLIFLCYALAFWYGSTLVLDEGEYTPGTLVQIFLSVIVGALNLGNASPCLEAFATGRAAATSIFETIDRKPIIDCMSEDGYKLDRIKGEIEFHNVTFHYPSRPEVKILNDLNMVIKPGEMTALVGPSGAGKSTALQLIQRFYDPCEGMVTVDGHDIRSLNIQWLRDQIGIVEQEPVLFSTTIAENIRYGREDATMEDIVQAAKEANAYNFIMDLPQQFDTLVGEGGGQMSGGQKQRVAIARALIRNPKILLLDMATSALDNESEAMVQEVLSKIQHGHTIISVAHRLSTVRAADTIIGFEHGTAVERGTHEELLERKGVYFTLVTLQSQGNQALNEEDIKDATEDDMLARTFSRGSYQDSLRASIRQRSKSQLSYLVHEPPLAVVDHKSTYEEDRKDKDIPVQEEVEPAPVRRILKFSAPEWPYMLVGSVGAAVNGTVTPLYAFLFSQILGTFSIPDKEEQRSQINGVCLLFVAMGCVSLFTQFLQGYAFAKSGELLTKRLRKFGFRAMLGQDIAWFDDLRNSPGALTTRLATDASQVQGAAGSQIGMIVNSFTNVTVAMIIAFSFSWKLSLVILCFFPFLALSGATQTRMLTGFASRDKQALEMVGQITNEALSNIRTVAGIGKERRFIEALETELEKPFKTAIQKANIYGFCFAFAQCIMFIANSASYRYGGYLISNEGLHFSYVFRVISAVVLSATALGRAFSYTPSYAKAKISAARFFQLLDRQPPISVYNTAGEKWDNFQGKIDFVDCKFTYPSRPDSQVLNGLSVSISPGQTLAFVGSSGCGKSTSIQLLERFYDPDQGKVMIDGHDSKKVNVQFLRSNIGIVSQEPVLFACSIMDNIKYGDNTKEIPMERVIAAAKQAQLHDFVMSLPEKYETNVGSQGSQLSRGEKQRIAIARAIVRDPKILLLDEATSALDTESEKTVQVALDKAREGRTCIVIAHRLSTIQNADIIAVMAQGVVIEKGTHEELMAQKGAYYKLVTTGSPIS
For the molecule `CC(C)N(CCC(C(N)=O)(c1ccccc1)c1ccccn1)C(C)C` (stereo not drawn) [DISOPYRAMIDE], the half-maximal activity concentration (AC50) – broadly, the concentration giving half of the maximal activity seen – was > 300 µM.

For `C[C@H]1c2cccc(O)c2C(=O)C2=C(O)[C@]3(O)C(=O)C(C(N)=O)=C(O)[C@@H](N(C)C)[C@@H]3[C@@H](O)[C@@H]21` [DOXYCYCLINE], the AC50 was > 300 µM.

`C[C@]12C=CC(=O)N[C@@H]1CC[C@@H]1[C@@H]2CC[C@]2(C)[C@@H](C(=O)Nc3cc(C(F)(F)F)ccc3C(F)(F)F)CC[C@@H]12` [DUTASTERIDE]: the AC50 was 14 µM.

As to `CN1C[C@H](C(=O)N[C@]2(C)O[C@@]3(O)[C@@H]4CCCN4C(=O)[C@H](Cc4ccccc4)N3C2=O)C=C2c3cccc4[nH]cc(c34)C[C@H]21` [ERGOTAMINE], the AC50 was 25 µM.

With `CN(C)CCC[C@@]1(c2ccc(F)cc2)OCc2cc(C#N)ccc21` [ESCITALOPRAM], the AC50 was > 300 µM.

With `C=C[C@H]1C[N@@]2CC[C@H]1C[C@@H]2[C@@H](O)c1ccnc2ccc(OC)cc12` [QUINIDINE], the AC50 came out at 64 µM.

Regarding `CO[C@H]1/C=C/O[C@@]2(C)Oc3c(C)c(O)c4c(O)c(c(/C=N/N5CCN(C)CC5)c(O)c4c3C2=O)NC(=O)/C(C)=C\C=C\[C@H](C)[C@H](O)[C@@H](C)[C@@H](O)[C@@H](C)[C@H](OC(C)=O)[C@@H]1C` [RIFAMPIN], the concentration at half-maximal activity (AC50) turned out to be 9.6 µM.

With `CC(N)C12CC3CC(CC(C3)C1)C2` (stereo not drawn) [RIMANTADINE], the half-maximal activity concentration (AC50) is > 300 µM.

In the case of `CN(C)CCc1c[nH]c2ccc(Cn3cncn3)cc12` [RIZATRIPTAN], the concentration at half-maximal activity (AC50) is > 300 µM.

With `CC(C)c1nc(N(C)S(C)(=O)=O)nc(-c2ccc(F)cc2)c1/C=C/[C@@H](O)C[C@@H](O)CC(=O)O` [ROSUVASTATIN], the AC50 stood at 160 µM.

As to `N[C@@H](CC(=O)N1CCn2c(nnc2C(F)(F)F)C1)Cc1cc(F)c(F)cc1F` [SITAGLIPTIN], the AC50 was > 300 µM.

In the case of `Nc1ccc(S(=O)(=O)Nc2nccs2)cc1` [SULFATHIAZOLE], the AC50 was > 300 µM.

For the molecule `O=C1C(CC[S+]([O-])c2ccccc2)C(=O)N(c2ccccc2)N1c1ccccc1` (stereo not drawn) [SULFINPYRAZONE], the half-maximal activity concentration (AC50) came out at 24 µM.

Consider `CCN(CC)CCNC(=O)c1c(C)[nH]c(/C=C2\C(=O)Nc3ccc(F)cc32)c1C` [SUNITINIB], for which the AC50 worked out at 34 µM.

Consider `C=CC[C@@H]1/C=C(\C)C[C@H](C)C[C@H](OC)[C@H]2O[C@@](O)(C(=O)C(=O)N3CCCC[C@H]3C(=O)O[C@H](/C(C)=C/[C@@H]3CC[C@@H](O)[C@H](OC)C3)[C@H](C)[C@@H](O)CC1=O)[C@H](C)C[C@@H]2OC` [TACROLIMUS ANHYDROUS], for which the AC50 came to 11 µM.

For the molecule `CC(C)(C)NCC(O)c1cc(O)cc(O)c1` (stereo not drawn) [TERBUTALINE], the AC50 is > 300 µM.

For the molecule `CC(S)C(=O)NCC(=O)O` (stereo not drawn) [TIOPRONIN], the half-maximal activity concentration (AC50) is > 300 µM.

As for `C[C@H](CCC(=O)O)[C@H]1CC[C@H]2[C@@H]3[C@@H](O)C[C@@H]4C[C@H](O)CC[C@]4(C)[C@H]3CC[C@]12C` [URSODIOL], the concentration at half-maximal activity (AC50) worked out at 95 µM.
